Measurements from ChEMBL document CHEMBL2150974 (J Med Chem, 2012).

Experiments:
[1] = target: T1, Mitogen-activated protein kinase 14 (Homo sapiens, UniProt Q16539); assay: Inhibition of p38alpha by immunosorbent based kinase assay
[2] = target: T1, Mitogen-activated protein kinase 14; assay: Inhibition of p38alpha-dependent TNFalpha production in human whole blood

T1 sequence (Q16539 whole entry): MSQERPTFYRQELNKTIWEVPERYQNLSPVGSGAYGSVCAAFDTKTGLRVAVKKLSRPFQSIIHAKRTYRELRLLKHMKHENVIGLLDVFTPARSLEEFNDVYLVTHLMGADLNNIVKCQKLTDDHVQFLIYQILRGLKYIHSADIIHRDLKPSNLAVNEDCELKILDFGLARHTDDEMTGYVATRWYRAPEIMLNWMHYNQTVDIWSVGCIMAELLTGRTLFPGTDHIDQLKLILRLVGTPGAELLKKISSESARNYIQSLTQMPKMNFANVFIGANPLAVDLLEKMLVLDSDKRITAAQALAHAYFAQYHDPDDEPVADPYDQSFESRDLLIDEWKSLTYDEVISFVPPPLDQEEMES

Row | Compound | IC50 [1] [nM] | IC50 [2] [nM]
1 | COc1ccc2c(c1)C(=O)c1ccc(Nc3ccc(F)c(F)c3F)cc1CC2 | 3530 | 81000
2 | O=C1c2ccc(Nc3ccc(F)cc3F)cc2CCc2cc(OCCO)ccc21 | 20 | 4700
3 | O=C1c2ccc(Nc3ccc(F)cc3Cl)cc2CCc2ccc(O)cc21 | 560 | 3800
4 | COc1ccc2c(c1)C(=O)c1ccc(Nc3ccc(F)cc3F)cc1CC2 | 20 | 1200
5 | O=C1c2ccc(Nc3ccc(F)cc3F)cc2CCc2ccc(OCC[C@@H](O)CO)cc21 | 10 | 80
6 | O=c1c2ccc(Nc3ccc(F)cc3F)cc2ccc2ccc(O)cc12 | 300 | 26700
7 | Nc1ccccc1Nc1ccc2c(c1)CCc1ccc(OC[C@@H](O)CO)cc1C2=O | 8 | 170
8 | O=C1c2ccc(Nc3ccc(F)cc3F)cc2CCc2ccc(OCCN3CCOCC3)cc21 | 10 | 80
9 | COc1ccc2c(c1)CCc1cc(Nc3ccc(F)cc3F)ccc1C2=O | 20 | 10200
10 | Nc1ccccc1Nc1ccc2c(c1)CCc1cc(OC[C@H](O)CO)ccc1C2=O | 30 | 6000
11 | CC1(C)OC[C@H](COc2ccc3c(c2)CCc2cc(Nc4ccccc4N)ccc2C3=O)O1 | 80 | 93600
12 | COc1ccc2c(c1)C(=O)c1ccc(Nc3ccc(F)cc3N)cc1CC2 | 40 | 1900
13 | O=C1c2ccc(Nc3ccccc3Cl)cc2CCc2ccc(O)cc21 | 140 | 7500
14 | COc1ccc2c(c1)C(=O)c1ccc(Oc3ccc(F)cc3F)cc1CC2 | 100 | 
15 | O=C1c2ccc(Nc3ccc(F)cc3F)cc2CCc2cc(OCCN3CCOCC3)ccc21 | 20 | 40000
16 | O=C1c2ccc(Oc3ccc(F)cc3F)cc2CCc2ccc(OCCN3CCOCC3)cc21 | 80 | 4500
17 | O=C1c2ccc(Nc3ccc(F)cc3F)cc2CCc2cc(OCCCO)ccc21 | 30 | 19500
18 | CC1(C)OC[C@@H](COc2ccc3c(c2)C(=O)c2ccc(Nc4ccc(F)cc4F)cc2CC3)O1 | 40 | 230
19 | COc1ccc2c(c1)C(=O)c1ccc(Nc3ccccc3F)cc1CC2 | 70 | 4900
20 | CC1(C)OC[C@@H](COc2ccc3c(c2)C(=O)c2ccc(Nc4ccccc4N)cc2CC3)O1 | 60 | 190
21 | COc1ccc2c(c1)C(=O)c1ccc(Nc3ccccc3OC)cc1CC2 | 380 | 7600
22 | COc1ccc2c(c1)C(=O)c1ccc(Nc3ccccc3N)cc1CC2 | 40 | 1500
23 | O=C1c2ccc(Oc3ccc(F)cc3F)cc2CCc2ccc(OC[C@@H](O)CO)cc21 | 40 | 6700
24 | O=C1c2ccc(Nc3ccc(F)cc3F)cc2CCc2ccc(O)cc21 | 20 | 700
25 | O=C1c2ccc(Nc3ccccc3)cc2CCc2ccc(O)cc21 | 60 | 2200
26 | COc1ccc2c(c1)CCc1cc(Nc3ccccc3N)ccc1C2=O | 70 | 12300
27 | COc1ccc2c(c1)C(=O)c1ccc(Nc3ccccc3)cc1CC2 | 70 | 3200
